Patent US9120774B2 (University of Kansas, priority 2009, dated 2015)
Where two headings read alike, the source gives them in different places.

Columns and labels:
[1] = test system: SkBr3 (Her2 overexpressing breast cancer cells); assay: Anti-proliferation activity against SkBr3 cells (MTS/PMS); assay type: cell-based; conditions: read-out: IC50, SKBr3
Protocol: (§1) Upon completion of synthesis of library of compounds in Examples 23 and 24, the compounds were evaluated for anti-proliferative activity against SkBr3 (Her2 overexpressing breast cancer cells), MCF-7 (estrogen receptor positive breast cancer cells), HCT-116 (colon cancer cells characterized by wild-type p53), PL45 (pancreatic cancer cells), LNCaP (androgen sensitive prostate cancer cells) and PC-3 (androgen independent prostate cancer cells) cell lines.
(§2) Cells were maintained in a 1:1 mixture of Advanced DMEM/F12 (Gibco) supplemented with non-essential amino acids, L-glutamine (2 mM), streptomycin (500 ng/mL), penicillin (100 units/mL), and 10% FBS. Cells were grown to confluence in a humidified atmosphere (37° C., 5% CO2), seeded (2000/well, 100 μl) in 96-well plates, and allowed to attach overnight. Compound or GDA at varying concentrations in DMSO (1% DMSO final concentration) was added, and cells were returned to the incubator for 72 hours. At 72 hours, the number of viable cells was determined using an MTS/PMS cell proliferation kit (Promega) per the manufacturer's instructions. Cells incubated in 1% DMSO were used at 100% proliferation, and values were adjusted accordingly. IC50 values were calculated from separate experiments performed in triplicate using GraphPad Prism.
as §2, with “μg/mL),” for “ng/mL),”, “μL)” for “μl)”

[2] = test system: MCF-7 (estrogen receptor positive breast cancer cells); assay: Anti-proliferation activity against MCF-7 cells (MTS/PMS); assay type: cell-based
Protocol: as §1, §2
as §2, with “μg/mL),” for “ng/mL),”, “μL)” for “μl)”

[3] = Homo sapiens, SK-BR-3, Table 18, modified furanose or pyranose noviose replacements
[4] = Homo sapiens, MCF7, Table 18, modified furanose or pyranose noviose replacements, read-out: IC50, MCF7
[5] = Table 19, 7-oxyalkylamino and 7-oxypiperidinyl analogues
[6] = Table 19, 7-oxyalkylamino and 7-oxypiperidinyl analogues, read-out: IC50, MCF-7
[7] = Homo sapiens, SK-BR-3, Table 19, 7-oxyalkylamino and 7-oxypiperidinyl analogues
[8] = Homo sapiens, MCF7, Table 19, 7-oxyalkylamino and 7-oxypiperidinyl analogues, read-out: IC50, MCF-7
[9] = Homo sapiens, SK-BR-3, Table 21, substituted indole-2-carboxamide analogues with noviose replacements
[10] = Homo sapiens, MCF7, Table 21, substituted indole-2-carboxamide analogues with noviose replacements, read-out: IC50, MCF-7

CC(C)=CCc1cc(C(=O)Nc2cc3ccc(O[C@H]4OCC[C@@H](O)[C@H]4O)c(C)c3oc2=O)ccc1O [16a, KU-425, N-(7-((2R,3R,4R)-3,4-dihydroxytetrahydro-2H-pyran-2-yloxy)-8-methyl-2-oxo-2H-chromen-3-yl)-4-hydroxy-3-(3-methylbut-2-enyl)benzamide]
IC50 [1, 3]: 10680 ± 50 nM | IC50 [2, 4]: 10040 ± 30 nM

CC(C)=CCc1cc(C(=O)Nc2cc3ccc(O[C@@H]4OCC[C@@H](O)[C@H]4O)c(C)c3oc2=O)ccc1O [16b, KU-426, N-(7-((2S,3R,4R)-3,4-dihydroxytetrahydro-2H-pyran-2-yloxy)-8-methyl-2-oxo-2H-chromen-3-yl)-4-hydroxy-3-(3-methylbut-2-enyl)benzamide]
IC50 [1, 3]: 6960 ± 60 nM | IC50 [2, 4]: 13300 ± 210 nM

CC(C)=CCc1cc(C(=O)Nc2cc3ccc(O[C@H]4OCCC[C@H]4O)c(C)c3oc2=O)ccc1O [17a, KU-427, 4-Hydroxy-N-(7-((2R,3R)-3-hydroxytetrahydro-2H-pyran-2-yloxy)-8-methyl-2-oxo-2H-chromen-3-yl)-3-(3-methylbut-2-enyl)benzamide]
IC50 [1, 3]: 7870 ± 40 nM | IC50 [2, 4]: 6450 ± 130 nM

CC(C)=CCc1cc(C(=O)Nc2cc3ccc(O[C@@H]4OCCC[C@H]4O)c(C)c3oc2=O)ccc1O [17b, KU-428, 4-Hydroxy-N-(7-((2S,3R)-3-hydroxytetrahydro-2H-pyran-2-yloxy)-8-methyl-2-oxo-2H-chromen-3-yl)-3-(3-methylbut-2-enyl)benzamide]
IC50 [1, 3]: 30000 ± 2070 nM | IC50 [2, 4]: 10200 ± 210 nM

CC(C)=CCc1cc(C(=O)Nc2cc3ccc(O[C@H]4C[C@H](O)CCO4)c(C)c3oc2=O)ccc1O [18a, KU-429, 4-Hydroxy-N-(7-((2S,4R)-4-hydroxytetrahydro-2H-pyran-2-yloxy)-8-methyl-2-oxo-2H-chromen-3-yl)-3-(3-methylbut-2-enyl)benzamide]
IC50 [1, 3]: 5070 ± 230 nM | IC50 [2, 4]: 1340 ± 180 nM

CC(=O)Oc1ccc(C(=O)Nc2cc3ccc(O[C@@H]4OC[C@H](O)[C@@H]4O)c(C)c3oc2=O)cc1CC=C(C)C [19, KU-431, 4-(7-((2S,3S,4S)-3,4-Dihydroxytetrahydrofuran-2-yloxy)-8-methyl-2-oxo-2H-chromen-3-ylcarbamoyl)-2-(3-methylbut-2-enyl)phenyl acetate]
IC50 [1, 3]: 14400 ± 520 nM | IC50 [2, 4]: 14300 ± 400 nM

CC(=O)Oc1ccc(C(=O)Nc2cc3ccc(O[C@H]4C[C@@H](O)CO4)c(C)c3oc2=O)cc1CC=C(C)C [20a, KU-432, 4-(7-((2S,4R)-4-Hydroxytetrahydrofuran-2-yloxy)-8-methyl-2-oxo-2H-chromen-3-ylcarbamoyl)-2-(3-methylbut-2-enyl)phenyl acetate]
IC50 [1, 3]: 22200 ± 940 nM | IC50 [2, 4]: > 100000 nM

CC(=O)Oc1ccc(C(=O)Nc2cc3ccc(O[C@@H]4C[C@@H](O)CO4)c(C)c3oc2=O)cc1CC=C(C)C [20b, KU-433, 4-(7-((2R,4R)-4-Hydroxytetrahydrofuran-2-yloxy)-8-methyl-2-oxo-2H-chromen-3-ylcarbamoyl)-2-(3-methylbut-2-enyl)phenyl acetate]
IC50 [1, 3]: 21500 ± 2280 nM | IC50 [2, 4]: 22500 ± 400 nM

CC(=O)Oc1ccc(C(=O)Nc2cc3ccc(OC4CCN(C)CC4)c(C)c3oc2=O)cc1CC=C(C)C [29a, KU-397, 4-(8-Methyl-7-(1-methylpiperidin-4-yloxy)-2-oxo-2H-chromen-3-ylcarbamoyl)-2-(3-methylbut-2-enyl)phenyl acetate]
IC50 [1, 5]: 1180 ± 200 nM

CC(=O)Oc1ccc(C(=O)Nc2cc3ccc(OC4CCCN(C)C4)c(C)c3oc2=O)cc1CC=C(C)C (stereo not shown) [29c, KU-417, 4-(8-Methyl-7-(1-methylpiperidin-3-yloxy)-2-oxo-2H-chromen-3-ylcarbamoyl)-2-(3-methylbut-2-enyl)phenyl acetate]
IC50 [1, 5]: 1570 ± 50 nM | IC50 [2, 6]: 1420 ± 20 nM

CC(=O)Oc1ccc(C(=O)Nc2cc3ccc(OCCN(C)C)c(C)c3oc2=O)cc1CC=C(C)C [29e, KU-421, 4-(7-(2-(Dimethylamino)ethoxy)-8-methyl-2-oxo-2H-chromen-3-ylcarbamoyl)-2-(3-methylbut-2-enyl)phenyl acetate]
IC50 [1, 5]: 4760 ± 520 nM | IC50 [2, 6]: 1320 nM

CC(=O)Oc1ccc(C(=O)Nc2cc3ccc(OCCCN(C)C)c(C)c3oc2=O)cc1CC=C(C)C [29f, KU-406, 4-(7-(3-(Dimethylamino)propoxy)-8-methyl-2-oxo-2H-chromen-3-ylcarbamoyl)-2-(3-methylbut-2-enyl)phenyl acetate]
IC50 [1, 5]: 1180 ± 30 nM | IC50 [2, 6]: 460 ± 190 nM

CC(=O)Oc1ccc(C(=O)Nc2cc3ccc(OC4CCNCC4)c(C)c3oc2=O)cc1CC=C(C)C [30b, KU-415, 4-(8-methyl-2-oxo-7-(piperidin-4-yloxy)-2H-chromen-3-ylcarbamoyl)-2-(3-methylbut-2-enyl)phenyl acetate]
IC50 [1, 5]: 1530 ± 140 nM | IC50 [2, 6]: 770 ± 270 nM

CC(=O)Oc1ccc(C(=O)Nc2cc3ccc(OC4CCCNC4)c(C)c3oc2=O)cc1CC=C(C)C (stereo not shown) [30d, KU-419, 4-(8-methyl-2-oxo-7-(piperidin-3-yloxy)-2H-chromen-3-ylcarbamoyl)-2-(3-methylbut-2-enyl)phenyl acetate]
IC50 [1, 5]: 1540 ± 110 nM | IC50 [2, 6]: 1230 nM

CNCCOc1ccc2cc(NC(=O)c3ccc(OC(C)=O)c(CC=C(C)C)c3)c(=O)oc2c1C [30g, KU-423, 4-(8-methyl-7-(2-(methylamino)ethoxy)-2-oxo-2H-chromen-3-ylcarbamoyl)-2-(3-methylbut-2-enyl)phenyl acetate]
IC50 [1, 5]: 2080 ± 130 nM | IC50 [2, 6]: 910 ± 210 nM

CC(C)=CCc1cc(C(=O)Nc2cc3ccc(OC4CCN(C)CC4)c(C)c3oc2=O)ccc1O [31a, KU-398, 4-Hydroxy-N-(8-methyl-7-(1-methylpiperidin-4-yloxy)-2-oxo-2H-chromen-3-yl)-3-(3-methylbut-2-enyl)benzamide]
IC50 [1, 7]: 1090 ± 100 nM

CC(C)=CCc1cc(C(=O)Nc2cc3ccc(OC4CCNCC4)c(C)c3oc2=O)ccc1O [31b, KU-416, 4-Hydroxy-N-(8-methyl-2-oxo-7-(piperidin-4-yloxy)-2H-chromen-3-yl)-3-(3-methylbut-2-enyl)benzamide]
IC50 [1, 7]: 850 ± 90 nM | IC50 [2, 8]: 470 ± 100 nM

CC(C)=CCc1cc(C(=O)Nc2cc3ccc(OC4CCCN(C)C4)c(C)c3oc2=O)ccc1O (stereo not shown) [31c, KU-418, 4-Hydroxy-N-(8-methyl-7-(1-methylpiperidin-3-yloxy)-2-oxo-2H-chromen-3-yl)-3-(3-methylbut-2-enyl)benzamide]
IC50 [1, 7]: 10100 ± 170 nM | IC50 [2, 8]: 4690 ± 160 nM

CC(C)=CCc1cc(C(=O)Nc2cc3ccc(OC4CCCNC4)c(C)c3oc2=O)ccc1O (stereo not shown) [31d, KU-420, 4-Hydroxy-N-(8-methyl-2-oxo-7-(piperidin-3-yloxy)-2H-chromen-3-yl)-3-(3-methylbut-2-enyl)benzamide]
IC50 [1, 7]: 2110 ± 580 nM | IC50 [2, 8]: 790 ± 110 nM

CC(C)=CCc1cc(C(=O)Nc2cc3ccc(OCCN(C)C)c(C)c3oc2=O)ccc1O [31e, KU-422, N-(7-(2-(Dimethylamino)ethoxy)-8-methyl-2-oxo-2H-chromen-3-yl)-4-hydroxy-3-(3-methylbut-2-enyl)benzamide]
IC50 [1, 7]: 52700 nM | IC50 [2, 8]: 9450 ± 220 nM

CC(C)=CCc1cc(C(=O)Nc2cc3ccc(OCCCN(C)C)c(C)c3oc2=O)ccc1O [31f, KU-407, N-(7-(3-(Dimethylamino)propoxy)-8-methyl-2-oxo-2H-chromen-3-yl)-4-hydroxy-3-(3-methylbut-2-enyl)benzamide]
IC50 [1, 7]: 1350 ± 380 nM | IC50 [2, 8]: 440 ± 20 nM

CNCCOc1ccc2cc(NC(=O)c3ccc(O)c(CC=C(C)C)c3)c(=O)oc2c1C [31g, KU-424, 4-Hydroxy-N-(8-methyl-7-(2-(methylamino)ethoxy)-2-oxo-2H-chromen-3-yl)-3-(3-methylbut-2-enyl)benzamide]
IC50 [1, 7]: 1330 ± 10 nM | IC50 [2, 8]: 750 ± 120 nM

Cc1c(OC2CCN(C)CC2)ccc2cc(NC(=O)c3cc4cc(Cl)ccc4[nH]3)c(=O)oc12 [KU-380]
IC50 [1, 9]: 350 ± 210 nM | IC50 [2, 10]: 90 ± 30 nM

COc1cc2cc(NC(=O)c3cc4cc(Cl)ccc4[nH]3)c(=O)oc2c(C)c1OC1CCN(C)CC1 [KU-386]
IC50 [1, 9]: 510 ± 110 nM | IC50 [2, 10]: 4950 ± 450 nM

COc1cc2cc(NC(=O)c3cc4cc(Cl)ccc4[nH]3)c(=O)oc2c(C)c1OCCCN(C)C [KU-395]
IC50 [1, 9]: 500 ± 10 nM | IC50 [2, 10]: 1540 ± 150 nM

CC(C)=CCc1cc(C(=O)Nc2cc3ccc(OC4CCN(C)CC4)c(C)c3oc2=O)ccc1OCCN(C)C [KU-456]
IC50 [1, 7]: 510 nM | IC50 [2, 8]: 23 nM

CC(C)=CCc1cc(C(=O)Nc2cc3ccc(OC4CCN(C)CC4)c(C)c3oc2=O)ccc1OCCCN(C)C [KU-457]
IC50 [1, 7]: 350 ± 80 nM | IC50 [2, 8]: 90 nM
